Reference: patent US11724998B2, “PXR agonists and uses thereof for gut barrier dysfunction treatment and prevention” (Albert Einstein College of Medicine, priority 2017, dated 2023)

Target: T1, PXR (Homo sapiens, UniProt O75469)
T1 sequence (O75469 1-434): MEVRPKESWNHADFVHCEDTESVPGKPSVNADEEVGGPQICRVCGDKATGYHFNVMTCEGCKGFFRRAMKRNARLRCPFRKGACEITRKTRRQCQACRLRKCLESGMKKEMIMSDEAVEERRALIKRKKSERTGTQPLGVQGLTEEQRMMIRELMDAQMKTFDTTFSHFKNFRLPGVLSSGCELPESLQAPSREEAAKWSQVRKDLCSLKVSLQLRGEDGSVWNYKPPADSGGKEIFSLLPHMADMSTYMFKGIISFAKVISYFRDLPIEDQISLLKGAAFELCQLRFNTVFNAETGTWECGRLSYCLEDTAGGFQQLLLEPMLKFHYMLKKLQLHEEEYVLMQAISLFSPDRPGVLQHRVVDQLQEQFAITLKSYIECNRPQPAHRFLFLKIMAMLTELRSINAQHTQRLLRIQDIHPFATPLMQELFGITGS
Experiment: PXR activation (transactivation) luciferase assay in LS180 cells
Assay type: cell-based
Design: co-transfecting full-length expressing human PXR plasmid (91) and p3A4 luciferase reporter (92) in LS180 or Caco-2 cells; expressed in transfected cells; host or cells: LS180
Experimental: FIG. 6A-6E. Activation and inhibition studies with different FKK compounds. (A) PXR activation, LS180 cells (upper), and PXR inhibition, LS180 cells, co-incubation with RIF (lower). (B) AhR activation, AZ-AHR cells (upper), and AhR inhibition, AZ-AHR cells, co-incubation with TCDD (lower). (C) GR activation, AZ-GR cells (upper), and VDR activation, IZ-VDRE cells (lower). (D) TR activation, PZ-GR cells (upper), and AR activation, AIZ-AR cells (lower). (E) Displacement of radiolabeled 9-cis-retinoic acid (RA) by FKK compounds.
Two molecules that were readily available (Ryan Scientific: FKK999 & BAS451) were purchased and tested in vitro for PXR activation using a HepG2 reporter assay. […] […]. […] In general, reporter cell lines are efficient ways to screen for PXR ligands (72). In the LS180 intestinal cell line, the PXR activation assay involves a transient transfection system using a specific PXR plasmid and reporter plasmid (CVmax % 11.2+2; CVmid % 10.8+0.1.4; Signal Window 6.2+1.1; Z′ factor 0.51+0.005).
All the synthesized compounds and intermediates were tested for their potential to activate PXR and/or AhR via luciferase assays. The PXR activation assays were performed by co-transfecting full-length expressing human PXR plasmid (91) and p3A4 luciferase reporter (92) in LS180 or Caco-2 cells. AhR activation conducted using stably co-transfected HepG2 reporter cells as previously described (93). […] With the exception of FKK6, there was no significant inhibition of TCDD-induced AhR activation. […] Independent verification of AhR activity of randomly selected compounds—FKK 5, 6 and 9—was performed in a separate laboratory (GHP). Nuclear receptor selectivity was assessed for FKK compounds for GR, ADR, TR and AR using cell-based luciferase assays previously described (93-102). There was no observed biologically significant (>2-fold) induction of nuclear receptor activity (FIG. 6C). RXR ligand displacement is only significant for FKK1 and FKK8 (FIG. 6D).

SMILES: O=C(c1ccncc1)c1cc2ccccc2n1S(=O)(=O)c1ccccc1 [FKK5]
- EC50: 1680 nM
- Emax (read-out: Emax/Emax[rifampicin, positive control]): 128%
